target: ASK1 (Apoptosis Signal-Regulating Kinase 1) (Homo sapiens (Human), UniProt Q99683); assay: ASK1 (Apoptosis Signal-Regulating Kinase 1) TR-FRET Kinase Assay (Biochemical IC50); conditions: TR-FRET, biotin-MBP substrate, 20 min pre-incubation, ATP added as 300 μM solution
Sequence (Q99683 649-946): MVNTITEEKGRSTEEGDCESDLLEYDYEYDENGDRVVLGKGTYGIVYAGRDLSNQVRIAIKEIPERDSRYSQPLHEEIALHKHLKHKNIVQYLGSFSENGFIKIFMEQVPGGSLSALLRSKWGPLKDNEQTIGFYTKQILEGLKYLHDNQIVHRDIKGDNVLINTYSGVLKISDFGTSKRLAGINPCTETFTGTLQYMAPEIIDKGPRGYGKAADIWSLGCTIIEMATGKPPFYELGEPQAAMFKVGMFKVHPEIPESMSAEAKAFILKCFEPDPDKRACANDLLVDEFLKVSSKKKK

| Compound | IC50 [nM] |
| --- | --- |
| O=C(Nc1cccc(-c2nncn2C2CC2)c1)c1cc(-c2cnc3ccccc3c2)ccn1 [Example 84, N-(3-(4-cyclopropyl-4H-1,2,4-triazol-3-yl)phenyl)-4-(quinolin-3-yl)picolinamide] | 13 |
| O=C(Nc1cccc(-c2nncn2C2CC2)c1)c1cc(-c2cncc(C3CC3)c2)ccn1 [Example 156, 5-cyclopropyl-N-(3-(4-cyclopropyl-4H-1,2,4-triazol-3-yl)phenyl)-3,4′-bipyridine-2′-carboxamide] | 11 |
| O=C(Nc1cccc(-c2nncn2C2CC2)c1)c1cc(-c2ccc(OCC(F)(F)F)nc2)ccn1 [Example 56, N-(3-(4-cyclopropyl-4H-1,2,4-triazol-3-yl)phenyl)-6-(2,2,2-trifluoroethoxy)-3,4′-bipyridine-2′-carboxamide] | 69 |
| COc1ncc(-c2ccnc(C(=O)Nc3cccc(-c4nncn4C4CC4)c3)c2)c(OC)n1 [Example 49, N-(3-(4-cyclopropyl-4H-1,2,4-triazol-3-yl)phenyl)-4-(2,4-dimethoxypyrimidin-5-yl)picolinamide] | 8 |
| CC(C)[C@H](C)n1cnnc1-c1cccc(NC(=O)c2cc(-n3cnc(C4CC4)c3)ccn2)c1 [Example 264, (S)-4-(4-cyclopropyl-1H-imidazol-1-yl)-N-(3-(4-(3-methylbutan-2-yl)-4H-1,2,4-triazol-3-yl)phenyl)picolinamide] | 23 |
| Cc1nc(C2CC2)cn1-c1ccnc(C(=O)Nc2cccc(-c3nncn3C3CC3)n2)c1 [Example 183, 4-(4-cyclopropyl-2-methyl-1H-imidazol-1-yl)-N-(6-(4-cyclopropyl-4H-1,2,4-triazol-3-yl)pyridin-2-yl)picolinamide] | 8 |
| O=C(Nc1cccc(-c2nncn2C2CC2)c1)c1cc(-n2cnc3c2CCCC3)ccn1 [Example 86, N-(3-(4-cyclopropyl-4H-1,2,4-triazol-3-yl)phenyl)-4-(4,5,6,7-tetrahydro-1H-benzo[d]imidazol-1-yl)picolinamide] | 9 |
| CCc1cn(-c2ccnc(C(=O)Nc3cccc(-c4nncn4C4CC4)c3)c2)cn1 [Example 158, N-(3-(4-cyclopropyl-4H-1,2,4-triazol-3-yl)phenyl)-4-(4-ethyl-1H-imidazol-1-yl)picolinamide] | 5 |
| Cn1cnnc1-c1cccc(NC(=O)c2cc(-c3cnc4ccccn34)ccn2)c1 [Example 13, 4-(imidazo[1,2-a]pyridin-3-yl)-N-(3-(4-methyl-4H-1,2,4-triazol-3-yl)phenyl)picolinamide] | 44 |
| CCc1ncc(-c2ccnc(C(=O)Nc3cccc(-c4nncn4C4CC4)c3)c2)cc1Cl [Example 139, 5-chloro-N-(3-(4-cyclopropyl-4H-1,2,4-triazol-3-yl)phenyl)-6-ethyl-3,4′-bipyridine-2′-carboxamide] | 16 |
| C[C@@H](c1ccccc1)n1cnnc1-c1cccc(NC(=O)c2cc(-c3ccc(C4CC4)nc3)ccn2)c1 [Example 220, (S)-6-cyclopropyl-N-(3-(4-(1-phenylethyl)-4H-1,2,4-triazol-3-yl)phenyl)-3,4′-bipyridine-2′-carboxamide] | 61 |
| Cc1cc(C(=O)Nc2cccc(-c3nncn3C3CC3)n2)cc(-n2cnc(C3CC3)c2)c1 [Example 209, 3-(4-cyclopropyl-1H-imidazol-1-yl)-N-(6-(4-cyclopropyl-4H-1,2,4-triazol-3-yl)pyridin-2-yl)-5-methylbenzamide] | 7 |
| Cn1cnnc1-c1cccc(NC(=O)c2cc(N3CCOCC3)ccn2)c1 [Example 30, N-(3-(4-methyl-4H-1,2,4-triazol-3-yl)phenyl)-4-morpholinopicolinamide] | 335 |
| O=C(Nc1cccc(-c2cncn2C2CC2)c1)c1cc(-c2cccnc2)ccn1 [Example 72, N-(3-(1-cyclopropyl-1H-imidazol-5-yl)phenyl)-3,4′-bipyridine-2′-carboxamide] | 36 |
| COc1ccc2ncc(-c3ccnc(C(=O)Nc4cccc(-c5nncn5C5CC5)c4)c3)cc2c1 [Example 251, N-(3-(4-cyclopropyl-4H-1,2,4-triazol-3-yl)phenyl)-4-(6-methoxyquinolin-3-yl)picolinamide] | 7 |
| O=C(Nc1cccc(-c2nncn2C2CC2)n1)c1cc(F)cc(-n2cnc(C3CC3)c2)c1 [Example 205, 3-(4-cyclopropyl-1H-imidazol-1-yl)-N-(6-(4-cyclopropyl-4H-1,2,4-triazol-3-yl)pyridin-2-yl)-5-fluorobenzamide] | 9 |
| Cc1ccc(-c2ccnc(C(=O)Nc3cccc(-c4nncn4C4CC4)c3)c2)cn1 [Example 53, N-(3-(4-cyclopropyl-4H-1,2,4-triazol-3-yl)phenyl)-6-methyl-3,4′-bipyridine-2′-carboxamide] | 11 |
| CSc1ccc(-c2ccnc(C(=O)Nc3cccc(-c4nncn4C4CC4)c3)c2)cn1 [Example 131, N-(3-(4-cyclopropyl-4H-1,2,4-triazol-3-yl)phenyl)-6-(methylthio)-3,4′-bipyridine-2′-carboxamide] | 11 |

| Compound | IC50 [nM] |
| --- | --- |
| O=C(Nc1cccc(-c2nncn2CC(F)(F)F)c1)c1cc(-c2cccnc2)ccn1 [Example 58, N-(3-(4-(2,2,2-trifluoroethyl)-4H-1,2,4-triazol-3-yl)phenyl)-3,4′-bipyridine-2′-carboxamide] | 290 |
| Cc1c(C(=O)Nc2cccc(-c3nncn3C3CC3)n2)cccc1-n1cnc(C2CC2)c1 [Example 196, 3-(4-cyclopropyl-1H-imidazol-1-yl)-N-(6-(4-cyclopropyl-4H-1,2,4-triazol-3-yl)pyridin-2-yl)-2-methylbenzamide] | 1260 |
| O=C(Nc1cccc(-c2nncn2C2CC2)n1)c1cc(-n2cnc(C3CC3)c2)c2ccccc2n1 [Example 226, 4-(4-cyclopropyl-1H-imidazol-1-yl)-N-(6-(4-cyclopropyl-4H-1,2,4-triazol-3-yl)pyridin-2-yl)quinoline-2-carboxamide] | 16 |
| CN(C)c1ccc(-c2ccnc(C(=O)Nc3cccc(-c4nncn4C4CC4)c3)c2)cn1 [Example 91, N-(3-(4-cyclopropyl-4H-1,2,4-triazol-3-yl)phenyl)-6-(dimethylamino)-3,4′-bipyridine-2′-carboxamide] | 18 |
| O=C(Nc1cccc(-c2nncn2C2CC2)n1)c1cc(-c2ccc(C3CC3)nc2)c2ccccc2n1 [Example 225, N-(6-(4-cyclopropyl-4H-1,2,4-triazol-3-yl)pyridin-2-yl)-4-(6-cyclopropylpyridin-3-yl)quinoline-2-carboxamide] | 103 |
| O=C(Nc1cccc(-c2nncn2C2CC2)c1)c1cc(-n2cnc3cnccc32)ccn1 [Example 83, N-(3-(4-cyclopropyl-4H-1,2,4-triazol-3-yl)phenyl)-4-(1H-imidazo[4,5-c]pyridin-1-yl)picolinamide] | 53 |
| O=C(Nc1cccc(-c2cncn2C2CC2)c1)c1cc(-c2cnc3ccccc3c2)ccn1 [Example 108, N-(3-(1-cyclopropyl-1H-imidazol-5-yl)phenyl)-4-(quinolin-3-yl)picolinamide] | 41 |
| C[C@H](n1cnnc1-c1cccc(NC(=O)c2cc(-n3cnc(C4CC4)c3)ccn2)c1)C(F)(F)F [Example 189, (S)-4-(4-cyclopropyl-1H-imidazol-1-yl)-N-(3-(4-(1,1,1-trifluoropropan-2-yl)-4H-1,2,4-triazol-3-yl)phenyl)picolinamide] | 9 |
| Cc1cc(-c2ccnc(C(=O)Nc3cccc(-c4nncn4C4CC4)c3)c2)cnc1F [Example 48, N-(3-(4-cyclopropyl-4H-1,2,4-triazol-3-yl)phenyl)-6-fluoro-5-methyl-3,4′-bipyridine-2′-carboxamide] | 37 |
| CNS(=O)(=O)c1ccc(-c2ccnc(C(=O)Nc3cccc(-c4nncn4C4CC4)c3)c2)cc1 [Example 98, N-(3-(4-cyclopropyl-4H-1,2,4-triazol-3-yl)phenyl)-4-(4-(N-methylsulfamoyl)phenyl)picolinamide] | 7 |
| CN1CCN(c2ccnc(C(=O)Nc3cccc(-c4nncn4C)c3)c2)CC1 [Example 29, N-(3-(4-methyl-4H-1,2,4-triazol-3-yl)phenyl)-4-(4-methylpiperazin-1-yl)picolinamide] | 443 |
| O=C(Nc1cccc(-c2nncn2C2CC2)n1)c1cc(-n2cnc(C(F)(F)F)c2)ccn1 [Example 188, N-(6-(4-cyclopropyl-4H-1,2,4-triazol-3-yl)pyridin-2-yl)-4-(4-(trifluoromethyl)-1H-imidazol-1-yl)picolinamide] | 6 |
| Cc1ncn(-c2ccnc(C(=O)Nc3cccc(-c4nncn4C4CC4)n3)c2)c1C [Example 160, N-(6-(4-cyclopropyl-4H-1,2,4-triazol-3-yl)pyridin-2-yl)-4-(4,5-dimethyl-1H-imidazol-1-yl)picolinamide] | 4 |
| CC(C)S(=O)(=O)c1ccc(-c2ccnc(C(=O)Nc3cccc(-c4nncn4C4CC4)c3)c2)cc1 [Example 118, N-(3-(4-cyclopropyl-4H-1,2,4-triazol-3-yl)phenyl)-4-(4-(isopropylsulfonyl)phenyl)picolinamide] | 9 |
| O=C(Nc1cccc(-c2nncn2C2CC2)c1)c1cc(-c2ccc(N3CCCC3)nc2)ccn1 [Example 47, N-(3-(4-cyclopropyl-4H-1,2,4-triazol-3-yl)phenyl)-6-(pyrrolidin-1-yl)-3,4′-bipyridine-2′-carboxamide] | 32 |
| CC(C)(C)c1ccc(-c2ccnc(C(=O)Nc3cccc(-c4nncn4C4CC4)c3)c2)cn1 [Example 149, 6-tert-butyl-N-(3-(4-cyclopropyl-4H-1,2,4-triazol-3-yl)phenyl)-3,4′-bipyridine-2′-carboxamide] | 25 |
| O=C(Nc1cccc(-c2nncn2CC2(O)CC2)c1)c1cc(-c2cccnc2)ccn1 [Example 61, N-(3-(4-((1-hydroxycyclopropyl)methyl)-4H-1,2,4-triazol-3-yl)phenyl)-3,4′-bipyridine-2′-carboxamide] | 174 |
| O=C(Nc1cccc(-c2nncn2C2CC2)n1)c1cccc(-c2cnc3cccnc3c2)c1 [Example 191, N-(6-(4-cyclopropyl-4H-1,2,4-triazol-3-yl)pyridin-2-yl)-3-(1,5-naphthyridin-3-yl)benzamide] | 18 |

Source: patent publication USRE48711E1, “Apoptosis signal-regulating kinase inhibitors” (Gilead Sciences, Inc., priority 2009, dated 2021)
